Calls of active or inactive are those of the source.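 Rule for the calls: active = fitted curve drops below -35% activity at a concentration within twice the top valid tested dose; inconclusive = no clear call, values can overlap the other calls; inactive = signal rising instead of falling, among other cases.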
Test: ATP-based viability loss in HepG2 cells – cell-based, CellTiter-Glo luminescence, cherry-pick, set 3, cytotoxicity control, dose response (AID 720589)
Conditions: HepG2 viability, ATP luminescence (CellTiter-Glo), 72 h; at 0.011 µM; active compounds read low; 0% = untreated, negative = ATP loss

| Structure (SMILES) | max activity |
| --- | --- |
| Cc1cccc(N2CCN(C3C(=O)Nc4ccccc4-n4nnnc43)CC2)c1C (stereo unspecified) | 12.3% (inactive) |
| N/C(Cc1nc(-c2ccc(F)cc2)cs1)=N\O | 20.4% (inactive) |
| COc1ccc(NC(=O)N(C)[C@H]2C[C@H]3c4[nH]c5ccccc5c4CCN3C(=O)[C@H]2CO)cc1 | -20.5% (inactive) |
| C[C@@H]1CN([C@@H](C)CO)S(=O)(=O)c2ccc(C#Cc3ccncc3)cc2O[C@H]1CN(C)S(=O)(=O)c1ccccc1 | -29.6% (inactive) |
| COc1ccc2oc(C(=O)NCCc3ccccc3)c(C)c2c1 | -16.8% (inactive) |
| C=CC[n+]1c(-c2ccc(C)cc2)csc1Nc1ccc(NC(C)=O)cc1 | 20.8% (inactive) |
| Cc1cccc(/C=N/Nc2ccc3ccccc3n2)c1 | 29% (inactive) |
| CCCCNC(=O)C(c1ccc(OCC(=O)OC)c(C(=O)OC)c1)N(CCOC)C(=O)CCCCCN1C(=O)NC(c2ccc(-c3ccccc3)cc2)C(C(=O)OCc2ccccc2)=C1C (stereo unspecified) | 32.5% (inactive) |
| Cc1ccsc1C(=O)OCC(=O)NCCC1=CCCCC1 | -13% (inactive) |

Same assay, conditions: HepG2 viability, ATP luminescence (CellTiter-Glo), 72 h; at 0.035 µM; active compounds read low; 0% = untreated, negative = ATP loss

| Structure (SMILES) | max activity |
| --- | --- |
| O=C1C(=O)N(Cc2cccs2)c2ccccc21 | -28.1% (inactive) |
| CN1c2ccc(-c3ccc(C#N)cc3)cc2[C@H]2[C@H](CCN2S(=O)(=O)c2cccc(F)c2)[C@H]1CO | -29.8% (inactive) |
| S=C(NCCN1CCOCC1)Nc1ccccc1Cl | -36.4% (inactive) |

Same assay, conditions: HepG2 viability, ATP luminescence (CellTiter-Glo), 72 h; at 0.1 µM; active compounds read low; 0% = untreated, negative = ATP loss

| Structure (SMILES) | max activity |
| --- | --- |
| O=C(NCCc1ccccc1)c1ccccc1NC(=O)C1CCCO1 (stereo unspecified) | -10.9% (inactive) |
| Cc1noc(C)c1C(=O)Nc1sccc1C(N)=O | -22.6% (inactive) |
| CCCCN=C(NNc1ccc(Br)cc1)C(=O)OCC | -31% (inactive) |
| COC(=O)C[C@H]1C=C[C@@H](NC(=O)Nc2ccc(C(F)(F)F)cc2)[C@H](CO)O1 | -17.7% (inactive) |
| CCCNC(=O)N1[C@H](C#N)[C@H](c2ccc(C#Cc3ccc(F)cc3)cc2)[C@H]1CO | -28.6% (inactive) |
| COc1cccc(Sc2ccccc2/C=N/NC(N)=O)c1 | -25.8% (inactive) |
| Cc1cc(C)cc(OCC(=O)OCC(=O)Nc2cc(S(=O)(=O)N3CCOCC3)ccc2C)c1 | -15.3% (inactive) |
| CCCNC(=O)[C@@H]1[C@@H](CO)[C@@H]2Cn3c(ccc(-c4ccccc4)c3=O)[C@H]1N2C(=O)CC | -16.5% (inactive) |
| CCOC(=O)C1CCCCN1C(=O)CCc1c(C)nc2cc(-c3ccccc3)nn2c1C (stereo unspecified) | 21.3% (inactive) |
| Cc1nn(Cc2ccccc2Cl)c2sc(C(=O)Nc3ccccc3N3CCOCC3)cc12 | 13.3% (inactive) |
| Cc1noc(C)c1NC(=O)Nc1ccc2c(c1)CC(=O)N([C@@H](C)CO)C[C@@H](C)[C@@H](CN(C)Cc1ccc(Cl)c(Cl)c1)O2 | 36.5% (inactive) |
| COC(=O)C(CC#Cc1ccc2c(c1)[C@]1(C(=O)N2)[C@H](c2ccc(OCCO)cc2)N2[C@H](c3ccccc3)[C@H](c3ccccc3)OC(=O)[C@H]2[C@@H]1C(=O)N1CCN(c2ncccn2)CC1)C(=O)OC | -11.5% (inactive) |

Same assay, conditions: HepG2 viability, ATP luminescence (CellTiter-Glo), 72 h; at 0.3 µM; active compounds read low; 0% = untreated, negative = ATP loss

| Structure (SMILES) | max activity |
| --- | --- |
| Nc1ccc(Oc2ccccc2-c2ccccc2)cc1 | -37% (inactive) |
| COc1ccc2nc(-c3ccc(F)cc3)sc2c1 | -47.1% (inactive) |
| CCOc1ccc(NC(=O)C(=O)N/N=C\c2ccc(CNS(=O)(=O)c3ccccc3)o2)cc1 | -36.6% (inactive) |
| CC(C)CN(C(=O)CN1CCOCC1)c1c(N)n(CC(C)C)c(=O)[nH]c1=O | -39% (inactive) |
| O=C(NC1CCCC1)C(c1ccccc1)n1c(CSCCOc2ccccc2)nc2ccccc21 (stereo unspecified) | -34.7% (inactive) |
| C=CCn1c(O)c(N=Nc2ccccc2)c2ccccc21 | -21.6% (inactive) |
| OCCN1CCN(C(=S)c2ccc(-c3ccccc3)cc2)CC1 | -28.5% (inactive) |
| CCc1c(C(=O)NN2C(=O)C3CCCCC3C2=O)csc1C (stereo unspecified) | -31.9% (inactive) |
| O=C(CNC(=O)Cc1ccccc1)N=Nc1c(O)n(Cc2ccc3c(c2)OCO3)c2ccccc12 | -28.9% (inactive) |

Same assay, conditions: HepG2 viability, ATP luminescence (CellTiter-Glo), 72 h; at 0.9 µM; active compounds read low; 0% = untreated, negative = ATP loss

| Structure (SMILES) | max activity |
| --- | --- |
| COc1ccc(OC)c(-c2nnc3n2N=C(c2ccc(OC)c(OC4CCCC4)c2)CS3)c1 | -30% (inactive) |
| CCc1cnc(N2[C@H](C#N)[C@H](c3ccc(C#Cc4ccccc4F)cc3)[C@H]2CO)s1 | 65.8% (inactive) |
| Cc1c(Cl)cccc1NC(=O)CCC(=O)N/N=C/c1ccc[nH]1 | 21.7% (inactive) |
| COC(=O)c1cccc(NC(=O)NC(=O)c2ccccc2Cl)c1 | -19.2% (inactive) |
| Brc1ccc(CSc2nnc(-c3ccco3)o2)cc1 | -28.4% (inactive) |
| C[C@@H]1CN([C@H](C)CO)C(=O)c2cc(NC(=O)CCCCCC(=O)Nc3ccccc3N)ccc2O[C@@H]1CN(C)Cc1ccc(Cl)c(Cl)c1 | 13.5% (inactive) |

Same assay, conditions: HepG2 viability, ATP luminescence (CellTiter-Glo), 72 h; at 2.85 µM; active compounds read low; 0% = untreated, negative = ATP loss

| Structure (SMILES) | max activity |
| --- | --- |
| CCCCCCN(C(=O)CCCCCN1C(=O)NC(c2ccc(Cl)cc2)C(C(=O)OCc2ccccc2)=C1C)C(C(=O)NCCCC)c1ccc(OCC(=O)OC)c(C(=O)OC)c1 (stereo unspecified) | -30.9% (inactive) |
| COc1cc(OC)cc(-c2cc3nc(C)c(CCC(=O)NCc4ccccc4)c(C)n3n2)c1 | 23.9% (inactive) |
| C[C@@H]1CN([C@H](C)CO)C(=O)c2cc(C#CCc3ccccc3)cnc2O[C@@H]1CN(C)Cc1cccc(F)c1 | -31.8% (inactive) |
| O=c1[nH]c(=O)n([C@H]2C[C@H](O)[C@@H](CO)O2)cc1F | -50.3% (inactive) |
| COc1ccc(NC(=O)c2cc3ccccc3oc2=O)cc1 | -36.9% (inactive) |
| Oc1c(Cl)cc(Cl)c(Cl)c1Cc1c(O)c(Cl)cc(Cl)c1Cl | -40.1% (inactive) |
| C(=N\Nc1ccc2ccccc2n1)/c1ccc2c(c1)OCO2 | -36.5% (inactive) |

Same assay, conditions: HepG2 viability, ATP luminescence (CellTiter-Glo), 72 h; at 8 µM; active compounds read low; 0% = untreated, negative = ATP loss

| Structure (SMILES) | max activity |
| --- | --- |
| Cc1ccc(-c2ccc3c(c2)O[C@@H](CN(C)C(=O)Nc2ccc(F)cc2)[C@H](C)CN([C@@H](C)CO)S3(=O)=O)cc1 | -53.8% (inactive) |
| CCc1ccc(S(=O)(=O)c2ccc(-n3nc(C)cc3N)cc2)cc1 | 24% (inactive) |
| CN(C)Cc1c(O)ccc2c1O/C(=C\C=C\c1ccccc1)C2=O | -26.2% (inactive) |
| CCOc1cc2[nH]c(=S)n(Cc3ccc(C(=O)N4CCN(C)CC4)cc3)c(=O)c2cc1OCC | -29.8% (inactive) |
| COC(=O)C[C@@H]1CC[C@@H]2[C@@H](COc3ccc(NC(=O)Nc4cccc(Cl)c4)cc3C(=O)N2C)O1 | -33.7% (inactive) |
| COC(=O)C[C@@H]1CC[C@@H]2[C@H](COc3ccc(NC(=O)c4ccccc4)cc3C(=O)N2C)O1 | -19.1% (inactive) |
| COc1ccc(N=C(NN)c2ccc3ccccc3n2)cc1 | -15.2% (inactive) |
| CC(C)c1ccccc1NC(=O)COC(=O)CCN1C(=O)/C(=C\C=C\c2ccccc2)SC1=S | -10% (inactive) |

Same assay, conditions: HepG2 viability, ATP luminescence (CellTiter-Glo), 72 h; at 23.5 µM; active compounds read low; 0% = untreated, negative = ATP loss

| Structure (SMILES) | max activity |
| --- | --- |
| C[C@H]1CN([C@@H](C)CO)C(=O)Cc2cc(NC(=O)CCCCCC(=O)Nc3ccccc3N)ccc2O[C@H]1CN(C)Cc1ccc(Cl)c(Cl)c1 | -29.2% (inactive) |
| N#C[C@H]1N[C@H](CO)[C@H]1c1ccc(C#Cc2ccccc2F)cc1 | -26.9% (inactive) |
| CCCNC(=O)N1[C@H](C#N)[C@H](c2ccc(C#Cc3cccc(F)c3)cc2)[C@H]1CO | 22.8% (inactive) |

Same assay, conditions: HepG2 viability, ATP luminescence (CellTiter-Glo), 72 h; at 26 µM; active compounds read low

| Structure (SMILES) | max activity |
| --- | --- |
| O=C1NC(=S)NC(=O)C1=Cc1cccn1-c1ccc(O)cc1 | -27.6% (inactive) |

Same assay, conditions: HepG2 viability, ATP luminescence (CellTiter-Glo), 72 h; at 26 µM; active compounds read low; 0% = untreated, negative = ATP loss

| Structure (SMILES) | max activity |
| --- | --- |
| N#C[C@H]1N[C@H](CO)[C@H]1c1ccc(C#Cc2ccc(F)cc2)cc1 | -31.2% (inactive) |
| Cc1ccc2oc(/N=C(\N)NC(=O)C(C)(C)C)nc2c1 | -11.8% (inactive) |
| Cc1ccc(NC(=O)CCN2CCCCC2)cc1 | 20.8% (inactive) |
| Cc1ccc(/C=C/C(=O)N2CCN(S(=O)(=O)c3c(C)c(C)cc(C)c3C)CC2)o1 | -14.8% (inactive) |
| COc1ccc(S(=O)(=O)N=Nc2c(O)[nH]c3ccccc23)cc1 | -27.4% (inactive) |
| O=C(Nc1nc(-c2ccc(F)c(F)c2)cs1)c1ccc(OCC2CCCO2)cc1 (stereo unspecified) | -28.7% (inactive) |
| COC(=O)Cc1[nH]n(-c2nc3ccccc3s2)c(=O)c1C(C)=Nc1ccc(OC)cc1 | -20.2% (inactive) |
| C=CCOc1ccccc1C(=O)/C=C1/C(=O)Nc2ccccc21 | -31.5% (inactive) |
| CN1c2ccc(-c3ccc(C#N)cc3)cc2[C@H]2[C@H](CCN2S(=O)(=O)c2cccc(F)c2)[C@@H]1CO | 33.3% (inactive) |
| O=c1[nH]c(/C=C2\C=Nc3ccccc32)c(O)n1Cc1ccccc1F | -19.8% (inactive) |
| COc1ccc(-c2ccc3c(c2)[C@H]2[C@H](CCN2S(=O)(=O)c2ccc(OC)cc2)[C@@H](CO)N3C)cc1 | -27% (inactive) |
| C[C@@H]1CN([C@H](C)CO)C(=O)CCCn2nncc2CO[C@H]1CN(C)Cc1ccc(Oc2ccccc2)cc1 | -33.6% (inactive) |
| O=C1C(=O)N(CCS(=O)(=O)c2ccccc2)c2ccccc21 | 24.1% (inactive) |
| CCCC[C@@H]1Cc2[nH][nH]c(=O)c2[C@H](c2ccc3ccccc3c2)O1 | 22% (inactive) |
| Cc1ccc(/C=N/Nc2ccc3ccccc3n2)o1 | -46.4% (inactive) |
| O=C(C[C@H]1C[C@H]2c3cc(NS(=O)(=O)c4ccc(F)cc4)ccc3O[C@H]2[C@H](CO)O1)NCc1ccc(Oc2ccccc2)cc1 | 21.5% (inactive) |
| COc1ccc(-c2cn(-c3ccc(OC)cc3)c3[n+]2-c2ccccc2CC3)cc1 | -23.2% (inactive) |
| COc1ccc(C2=NNC(=Nc3cc(S(=O)(=O)N(C)C)ccc3C)SC2)c(OC)c1 | -17.3% (inactive) |

— PubChem BioAssay AID720589 (Broad Institute, 2013)
